Read-outs that look alike come from different tables or passages of the source.
How the values were obtained:
[1] = in vivo; cited from earlier work
[2] = cited from earlier work
[3] = Mechanical stability of crystalline form A (XRPD after mechanical treatment); assay type: physicochemical
[4] = Accelerated stability test of crystalline form A (XRPD); assay type: physicochemical; settings: open, 40° C., RH75%, 3 months (sampled at 1, 2, 3 months)
Procedure: (§1) XRPD (X-ray Powder Diffraction) Method 1: about 10 mg of a sample is uniformly laid on a single crystal silicon sample disc, and XRPD detection is performed using following parameters. Instrument model: X'Pert^3 X-ray diffractometer; target: Cu-Kα (40 mA, 45 kV); scanning range from 3° to 40° in the 2θ interval.

[5] = assay type: physicochemical; settings: for Purity by HPLC, high humidity (RH92.5%) / Purity by HPLC, high temperature (60° C.) / Purity by HPLC, light (4500 ± 500 Lux): hydrochloride
[6] = Polymorph study: crystalline form A suspended and pulped in solvents, precipitate assayed by XRPD; assay type: physicochemical; settings: for Crystalline form after suspension (XRPD): stirred 2 days at 40° C. in darkness
Procedure: as §1
The solution was centrifuged to remove the precipitates, which were dried and assayed by XPRD as follows: […]

Compound | Purity by HPLC, high humidity (RH92.5%) ([5]; day 0) | Purity by HPLC, high temperature (60° C.) ([5]; day 0) | Purity by HPLC, light (4500 ± 500 Lux) ([5]; day 0) | Purity by HPLC, high humidity (RH92.5%) ([5]; day 5) | Purity by HPLC, high temperature (60° C.) ([5]; day 5) | Purity by HPLC, light (4500 ± 500 Lux) ([5]; day 5) | Purity by HPLC, high humidity (RH92.5%) ([5]; day 10) | Purity by HPLC, high temperature (60° C.) ([5]; day 10) | Purity by HPLC, light (4500 ± 500 Lux) ([5]; day 10) | Purity by HPLC, high humidity (RH92.5%) ([5]; day 30) | Purity by HPLC, high temperature (60° C.) ([5]; day 30) | Purity by HPLC, light (4500 ± 500 Lux) ([5]; day 30) | also measured
CC(=O)[C@H]1CC[C@H]2[C@@H]3CC[C@H]4C[C@H](O)CC[C@]4(C)[C@H]3CC[C@]12C [allopregnanolone] | – | – | – | – | – | – | – | – | – | – | – | – | oral availability [1]: poor; human plasma half-life period [2]: about 45 minutes
CC(=O)[C@H]1CC[C@H]2[C@@H]3CC[C@H]4C[C@H](OC(=O)[C@@H](NC(=O)CN)C(C)C)CC[C@]4(C)[C@H]3CC[C@]12C.Cl [crystalline form A, glycine-L-valine 3α-hydroxy-5α-pregnan-20-one ester hydrochloride] | 99.69% | 99.69% | 99.69% | 99.69% | 99.62% | 99.66% | 99.69% | 99.68% | 99.70% | 99.69% | 99.69% | 99.67% | Effect of grinding, mechanical pulverising and pressure on stability (conclusion) [3]: no effects; Crystalline form after mechanical treatment (XRPD) ([3]; Ground in an agate mortar for a few minutes): Crystalline form A; Crystalline form after mechanical treatment (XRPD) ([3]; pressed in a tablet press): Crystalline form A; Crystalline form after mechanical treatment (XRPD) ([3]; pulverised in a mechanical shredder for a few minutes): Crystalline form A; Change of crystalline form (XRPD) after accelerated stability test [4]: no change; Stability under high temperature, high humidity and light conditions (conclusion) ([5]; up to 30 days): stable; Crystalline form after suspension (XRPD) ([6]; Acetone): Crystalline form A; Crystalline form after suspension (XRPD) ([6]; Ethanol): Crystalline form A; Crystalline form after suspension (XRPD) ([6]; Ethyl acetate): Crystalline form A; Crystalline form after suspension (XRPD) ([6]; Methanol): Crystalline form A; Crystalline form after suspension (XRPD) ([6]; Methyl tert-butyl ether): Crystalline form A; Crystalline form after suspension (XRPD) ([6]; Toluene): Crystalline form A; Crystalline form after suspension (XRPD) ([6]; n-Heptane): Crystalline form A; Stability in different solvent systems (conclusion) ([6]; seven solvents, 2 days at 40° C.): remains stable
CC(=O)[C@H]1CC[C@H]2[C@@H]3CC[C@H]4C[C@H](OC(=O)[C@@H](NC(=O)CN)C(C)C)CC[C@]4(C)[C@H]3CC[C@]12C.Cl [crystalline form B, glycine-L-valine 3α-hydroxy-5α-pregnan-20-one ester hydrochloride] | 99.59% | 99.59% | 99.59% | 99.58% | 99.57% | 99.55% | 99.55% | 99.54% | 99.53% | 99.56% | 99.52% | 99.52% | –
CC(=O)[C@H]1CC[C@H]2[C@@H]3CC[C@H]4C[C@H](OC(=O)[C@@H](NC(=O)CN)C(C)C)CC[C@]4(C)[C@H]3CC[C@]12C.Cl [crystalline form C, glycine-L-valine 3α-hydroxy-5α-pregnan-20-one ester hydrochloride] | 99.62% | 99.62% | 99.62% | 99.58% | 99.61% | 99.60% | 99.56% | 99.59% | 99.59% | 99.53% | 99.60% | 99.57% | –
